pIC50: −log10 of the molar value.
Experiment: Inhibition of Phosphodiesterase 5 from human corpus cavernosum

Row | Compound | pIC50
1 | CCCc1nn(C)c2c(=O)[nH]c(-c3cc(S(=O)(=O)N4CCN(C(N)=O)CC4)ccc3OCC)nc12 [4-[4-Ethoxy-3-(1-methyl-7-oxo-3-propyl-6,7-dihydro-1H-pyrazolo[4,3-d]pyrimidin-5-yl)-benzenesulfonyl]-piperazine-1-carboxylic acid amide] | 8.68
2 | CCCc1[nH]nc2c(=O)[nH]c(-c3ccccc3O)nc12 [5-(2-Hydroxy-phenyl)-3-propyl-1,6-dihydro-pyrazolo[4,3-d]pyrimidin-7-one] | 6.00
3 | CCCc1[nH]nc2c(=O)[nH]c(-c3ccccc3)nc12 [5-Phenyl-3-propyl-1,6-dihydro-pyrazolo[4,3-d]pyrimidin-7-one] | 5.35
4 | CCCc1nn(C)c2c(=O)[nH]c(-c3cc(S(=O)(=O)N4CCN(CCO)CC4)ccc3OCC)nc12 [5-{2-Ethoxy-5-[4-(2-hydroxy-ethyl)-piperazine-1-sulfonyl]-phenyl}-1-methyl-3-propyl-1,6-dihydro-pyrazolo[4,3-d]pyrimidin-7-one] | 7.72
